How the values were obtained:
[1] = test system: isolated mouse liver mitochondria, complex I; assay: Oxygen consumption through complex I; details: for O2 cons CI EC20: inhibition of oxygen consumption, malate + glutamate + ADP, 2µM rotenone = 100%
[2] = test system: isolated mouse liver mitochondria; assay: Loss of mitochondrial transmembrane potential; format: biochemical; details: 20% of maximal loss of ΔΨm (50µM mClCCP = 100%), 30-min incubation
[3] = test system: isolated mouse liver mitochondria; assay: Cytochrome c release; format: biochemical; details: without Ca2+ pulse
[4] = test system: isolated mouse liver mitochondria; assay: Mitochondrial swelling; details: without Ca2+ pulse
[5] = short incubation of isolated mitochondria; ref Kamel et al. (2012); cited from earlier work

Row | ΔΨm loss EC20 [2] | induction of cytochrome c release (in words) [3] | Compound | O2 cons CI EC20 [1] | induction of mitochondrial swelling (in words) [4] | compound metabolized [5] | effect on oxygen consumption (in words) ([1]; with malate/glutamate and/or succinate)
1 | 137.9 µM | unable to induce | O=C(O)Cc1ccccc1Nc1c(Cl)cccc1Cl [Diclofenac] | 29.8 µM | – | – | –
2 | 3.4 µM | unable to trigger | Cc1c(C)c2c(c(C)c1O)CCC(C)(COc1ccc(CC3SC(=O)NC3=O)cc1)O2 (stereo not shown) [Troglitazone] | 6.0 µM | unable to trigger | – | –

The remaining lines, values behind:

Row | Compound | ΔΨm loss EC20 [2] | induction of cytochrome c release (in words) [3] | O2 cons CI EC20 [1] | induction of mitochondrial swelling (in words) [4] | compound metabolized [5] | effect on oxygen consumption (in words) ([1]; with malate/glutamate and/or succinate)
3 | C1CCC(C(CC2CCCCN2)C2CCCCC2)CC1 (stereo not shown) [Perhexiline] | 3.2 µM | induced mitochondrial swelling and cytochrome c release when very low concentrations were used | 87.7 µM | induced mitochondrial swelling and cytochrome c release when very low concentrations were used | – | –
4 | CNS(=O)(=O)Cc1ccc2[nH]cc(CCN(C)C)c2c1 [Sumatriptan] | 248.3 µM | – | > 400 µM | – | 30% | –
5 | Cc1cn([C@H]2C[C@H](N=[N+]=[N-])[C@@H](CO)O2)c(=O)[nH]c1=O [Zidovudine] | 416.1 µM | – | – | – | – | increased oxygen consumption

From paper PMC3446843 (Toxicological Sciences, 2012)
